Measured values taken from paper PMC7587962, “Evaluation of Cytotoxicity and α-Glucosidase Inhibitory Activity of Amide and Polyamino-Derivatives of Lupane Triterpenoids” (Molecules, 2020).

How the values were obtained:
CNS cancer subpanel = test: NCI-60 screen, subpanel CNS cancer
SR = test: NCI-60 SRB screen: leukemia SR; format: cell-based; details: Homo sapiens, 48 h
SW-620 = test: NCI-60 SRB screen: colon cancer SW-620; format: cell-based; details: Homo sapiens, 48 h, SW-620
[1] = system: 60 human tumor cell lines; details: single dose 10 µM
HCT-116 = test: NCI-60 SRB screen: colon cancer HCT-116; format: cell-based; details: Homo sapiens, 48 h, HCT-116
HOP-62 = test: NCI-60 SRB screen: non-small cell lung cancer HOP-62; format: cell-based, human; details: HOP-62
SF-268 = test: NCI-60 SRB screen: CNS cancer SF-268; format: cell-based, human; details: SF-268
UO-31 = test: NCI-60 SRB screen: renal cancer UO-31; format: cell-based, human; details: UO-31
TK-10 = test: NCI-60 SRB screen: renal cancer TK-10; format: cell-based, human; details: TK-10
NCI-H226 = test: NCI-60 SRB screen: non-small cell lung cancer NCI-H226; format: cell-based, human; details: NCI-H226
SF-295 = test: NCI-60 SRB screen: CNS cancer SF-295; format: cell-based, human; details: SF-295
SK-MEL-5 = test: NCI-60 SRB screen: melanoma SK-MEL-5; format: cell-based, human; details: SK-MEL-5
MCF7 = test: NCI-60 SRB screen: breast cancer MCF7; format: cell-based; details: Homo sapiens, 48 h, MCF7
SN12C = test: NCI-60 SRB screen: renal cancer SN12C; format: cell-based, human
IGROV1 = test: NCI-60 SRB screen: ovarian cancer IGROV1; format: cell-based, human; details: IGROV1
SK-MEL-28 = test: NCI-60 SRB screen: melanoma SK-MEL-28; format: cell-based, human; details: SK-MEL-28
UACC-62 = test: NCI-60 SRB screen: melanoma UACC-62; format: cell-based, human; details: UACC-62
MDA-MB-468 = test: NCI-60 SRB screen: breast cancer MDA-MB-468; format: cell-based, human
SNB-75 = test: NCI-60 SRB screen: CNS cancer SNB-75; format: cell-based, human; details: SNB-75
SK-MEL-2 = test: NCI-60 SRB screen: melanoma SK-MEL-2; format: cell-based, human; details: SK-MEL-2
OVCAR-4 = test: NCI-60 SRB screen: ovarian cancer OVCAR-4; format: cell-based; details: Homo sapiens; OVCAR-4; five concentrations, 48 h, SRB; read-out: GI50
SNB-19 = test: NCI-60 SRB screen: CNS cancer SNB-19; format: cell-based, human; details: SNB-19
A549/ATCC = test: NCI-60 SRB screen: non-small cell lung cancer A549/ATCC; format: cell-based, human; details: A549/ATCC
LOX IMVI = test: NCI-60 SRB screen: melanoma LOX IMVI; format: cell-based, human
HCT-15 = test: NCI-60 SRB screen: colon cancer HCT-15; format: cell-based, human; details: HCT-15
RPMI-8226 = test: NCI-60 SRB screen: leukemia RPMI-8226; format: cell-based; details: Homo sapiens, 48 h, RPMI-8226
DU-145 = test: NCI-60 SRB screen: prostate cancer DU-145; format: cell-based, human; details: DU-145
Ovarian Cancer subpanel = test: NCI-60 screen, subpanel Ovarian Cancer
786-0 = test: NCI-60 SRB screen: renal cancer 786-0; format: cell-based, human; details: 786-0
HS 578T = test: NCI-60 SRB screen: breast cancer HS 578T; format: cell-based, human; details: HS 578T
M14 = test: NCI-60 SRB screen: melanoma M14; format: cell-based, human; details: M14
HCC-2998 = test: NCI-60 SRB screen: colon cancer HCC-2998; format: cell-based, human; details: HCC-2998
NCI-H522 = test: NCI-60 SRB screen: non-small cell lung cancer NCI-H522; format: cell-based, human; details: NCI-H522
CCRF-CEM = test: NCI-60 SRB screen: leukemia CCRF-CEM; format: cell-based; details: Homo sapiens, 48 h
U251 = test: NCI-60 SRB screen: CNS cancer U251; format: cell-based; details: Homo sapiens, U251
OVCAR-8 = test: NCI-60 SRB screen: ovarian cancer OVCAR-8; format: cell-based, human; details: OVCAR-8
[2] = single dose 10 µM, read-out: Percentage Cell Growth
[3] = five concentrations, SRB, read-out: GI50
[4] = Homo sapiens, five concentrations, 48 h, SRB, read-out: GI50

## C=C(C)[C@@H]1CC[C@]2(C(=O)OC)CC[C@]3(C)[C@H](CC[C@@H]4[C@@]5(C)CCC(=NOCCC(=NOCCC#N)NCCC#N)C(C)(C)[C@@H]5CC[C@]43C)[C@@H]12 [Compound 21]
CNS cancer subpanel
  MID b, average sensitivity of all cell line of particular subpanel: 15.32 µM
  Selectivity, ratio MID a: MID b: 0.67
SR; [2]
  activity at 10 µM: 1.86%
SR; [3]
  GI50: 2.87 µM
SW-620; [2]
  activity at 10 µM: 22%
SW-620; [3]
  GI50: 4.45 µM
[1]; cell lines with negative growth
  cancer cell lethality, range of percentage growth: −0.38% to −84.68%
[1]; number of cell lines
  cases of cancer cell lethality: 11
HCT-116; [2]
  activity at 10 µM: 4.16%
HCT-116; [3]
  GI50: 2.89 µM
HOP-62; single dose 10 µM
  Percentage Cell Growth: 32.54%
HOP-62; [4]
  GI50: 12.5 µM
SF-268; [4]
  GI50: 11.4 µM
SF-268; single dose 10 µM
  Percentage Cell Growth: 29.14%
UO-31; [4]
  GI50: 15.6 µM
UO-31; single dose 10 µM
  Percentage Cell Growth: 19.03%
TK-10; [4]
  GI50: 13.8 µM
TK-10; single dose 10 µM
  Percentage Cell Growth: 37.88%
NCI-H226; [4]
  GI50: 5.43 µM
NCI-H226; single dose 10 µM
  Percentage Cell Growth: 2.42%
SF-295; [4]
  GI50: 21.4 µM
SF-295; single dose 10 µM
  Percentage Cell Growth: 36.56%
SK-MEL-5; [4]
  GI50: 3.02 µM
SK-MEL-5; single dose 10 µM
  Percentage Cell Growth: −84.68%
MCF7; [2]
  activity at 10 µM: 12.4%
MCF7; [3]
  GI50: 3.67 µM
SN12C; [4]
  GI50: 7.28 µM
SN12C; single dose 10 µM
  Percentage Cell Growth: −71.91%
IGROV1; Homo sapiens, IGROV-1, five concentrations, 48 h, SRB, read-out: GI50
  GI50: 14.9 µM
IGROV1; single dose 10 µM
  Percentage Cell Growth: 18.78%
SK-MEL-28; [4]
  GI50: 17.1 µM
SK-MEL-28; single dose 10 µM
  Percentage Cell Growth: 29.25%
UACC-62; [4]
  GI50: 2.32 µM
UACC-62; single dose 10 µM
  Percentage Cell Growth: −25.76%
MDA-MB-468; [4]
  GI50: 2.02 µM
MDA-MB-468; single dose 10 µM
  Percentage Cell Growth: 4.41%
SNB-75; [4]
  GI50: 31.2 µM
SNB-75; single dose 10 µM
  Percentage Cell Growth: 18.44%
SK-MEL-2; [4]
  GI50: 13.8 µM
SK-MEL-2; single dose 10 µM
  Percentage Cell Growth: 36.23%
OVCAR-4
  GI50: 12.3 µM
SNB-19; [4]
  GI50: 12.6 µM
SNB-19; single dose 10 µM
  Percentage Cell Growth: 28.93%
A549/ATCC; single dose 10 µM
  Percentage Cell Growth: 15.82%
A549/ATCC; [4]
  GI50: 5.27 µM
LOX IMVI; [4]
  GI50: 4.32 µM
LOX IMVI; single dose 10 µM
  Percentage Cell Growth: 14.56%
HCT-15; single dose 10 µM
  Percentage Cell Growth: 34.28%
HCT-15; [4]
  GI50: 5.77 µM
RPMI-8226; [2]
  activity at 10 µM: 3.28%
RPMI-8226; [3]
  GI50: 4.91 µM
DU-145; single dose 10 µM
  Percentage Cell Growth: 27.53%
DU-145; [4]
  GI50: 13.4 µM
Ovarian Cancer subpanel
  MID b, average sensitivity of all cell line of particular subpanel: 11.86 µM
  Selectivity, ratio MID a: MID b: 0.86
786-0; single dose 10 µM
  Percentage Cell Growth: −11.47%
786-0; [4]
  GI50: 6.42 µM
HS 578T; single dose 10 µM
  Percentage Cell Growth: 24.26%
HS 578T; [4]
  GI50: 30.2 µM
M14; [4]
  GI50: 11.9 µM
M14; single dose 10 µM
  Percentage Cell Growth: 26.57%
HCC-2998; single dose 10 µM
  Percentage Cell Growth: 26.92%
HCC-2998; [4]
  GI50: 13.8 µM
NCI-H522; [4]
  GI50: 8.34 µM
NCI-H522; single dose 10 µM
  Percentage Cell Growth: 13.36%
CCRF-CEM; [2]
  activity at 10 µM: 7.42%
CCRF-CEM; [3]
  GI50: 11.7 µM
U251; U-251, 48 h, single dose 10 µM, read-out: Percentage Cell Growth
  activity at 10 µM: -39.7%
U251; U-251, five concentrations, 48 h, SRB, read-out: GI50
  GI50: 4.3 µM
OVCAR-8; [4]
  GI50: 9.66 µM
OVCAR-8; single dose 10 µM
  Percentage Cell Growth: 13.17%
